In US20110244028A1, “METHOD OF SOLUBILIZING BIOLOGICALLY ACTIVE COMPOUNDS” (priority 2008, published 2011):
Where two headings read alike, the source gives them in different places.

How the values were obtained:
[1] = cited from earlier work
[2] = cited from earlier work; remark: listed apart in the source
[3] = control experiment without phospholipid: isotonic glycerol solution neutralized to pH 7.0; assay type: physicochemical
Description: In a control experiment 25 μl of the 100 mg phenytoin/ml solution in 1 M NaOH is added to 1.0 ml of isotonic glycerol solution to make up 2500 μg phenytoin/ml.

[4] = for precipitation in liposomal dispersion after neutralization: 100 mg phospholipid/ml liposomes ca 30 nm in isotonic glycerol
Description: Visual assessment may be supported by comparing the transmission optical density (OD) measurements before and after the compound is added when the system is at equilibrium. […] The figures should be at least 80% of the initial transmission value of the blank dispersion which is used as a control. […] When the liposome dispersions are not sufficiently transparent the loading process can nevertheless be followed by e.g. using microscopy techniques to detect unassociated drug particles.
A first aqueous suspension comprising SUVs is prepared in a micro-fiuidizer. The dispersion contains 100 mg phospholipid/ml in isotonic glycerol solution.

[5] = cited from earlier work; remark: listed apart in the source
[6] = 2.5 mg drug/ml in isotonic glycerol solution, neutralized to pH 7.0
[7] = 5 mg drug/ml in isotonic glycerol solution, neutralized to pH 7.0 with NaOH
[8] = 5 mg drug/ml, neutralized to pH 7.0 with NaOH

SMILES: O=C1NC(=O)C(c2ccccc2)(c2ccccc2)N1 [Phenytoin sodium]
- solubility at pH 10-pH13 ([1]; pH 10-pH13, according to Martindale): freely soluble

SMILES: O=C1NC(=O)C(c2ccccc2)(c2ccccc2)N1 [phenytoin]
- Log P oil/water [2]: 2.3
- precipitation in control without lipid after neutralization [3, 6]: precipitates
- solubility in water at pH 7 [1]: 3.7 μg/ml
- solubility in water at pH 7 ([1]; listed as Phenytoin): 37 μg/ml
- amount solubilized in the liposomes ([4]; pH 7): 2500 µg

SMILES: CN1C(=O)CN=C(c2ccccc2)c2cc(Cl)ccc21 [diazepam]
- precipitation in control without lipid after neutralization [3, 7]: precipitates out
- precipitation in liposomal dispersion after neutralization [4, 8]: remain dear without diazepam precipitates

SMILES: CC(=O)N1CCN(c2ccc(OCC3COC(Cn4ccnc4)(c4ccc(Cl)cc4Cl)O3)cc2)CC1 (centres unmarked) [ketoconazole]
- precipitation in control without lipid after neutralization [3, 7]: precipitates
- solubility at pH 1.2 [1]: 2729 μg/ml
- solubility in water at pH 7 [1]: 2 μg/ml
- precipitation in liposomal dispersion after neutralization [4, 8]: no precipitated ketoconazole can be seen

SMILES: OCCN(CCO)c1nc(N2CCCCC2)c2nc(N(CCO)CCO)nc(N3CCCCC3)c2n1 [dipyridamole]
- precipitation in control without lipid after neutralization [3, 6]: precipitates
- solubility at pH 1.2 [1]: 1753 μg/ml
- solubility in water at pH 7 [1]: 5 μg/ml
- precipitation in liposomal dispersion after neutralization ([4]; 2.5 mg drug/ml, neutralized to pH 7.0): No precipitated dipyridamole is noticed
- pKa [5]: 6.4
